{"source": "ChEMBL document CHEMBL1275538", "about": "“In vitro activity of OPT-80 tested against clinical isolates of toxin-producing Clostridium difficile” (Antimicrob Agents Chemother, 2008)", "key": {"Clostridioides difficile [1]": {"system": "Clostridioides difficile", "experiment": "Antibacterial activity against toxin-positive Clostridium difficile clinical isolate by agar dilution method in presence of Tazobactam", "type": "functional"}, "Clostridioides difficile [2]": {"system": "Clostridioides difficile", "experiment": "Antibacterial activity against toxin-positive Clostridium difficile clinical isolate assessed as percent of susceptible isolates by agar dilution method", "type": "functional"}, "Clostridioides difficile [3]": {"system": "Clostridioides difficile", "experiment": "Antibacterial activity against toxin-positive Clostridium difficile clinical isolate by agar dilution method", "type": "functional"}, "[4]": {"experiment": "Apparent elimination half-life in syrian golden hamster at 400 mg/kg", "type": "ADME, organism-based, Mesocricetus auratus", "set-up": "dose 400 mg/kg", "conditions": "in vivo, read-out: beta t1/2 (converted)"}, "Clostridioides difficile [5]": {"system": "Clostridioides difficile", "experiment": "Antibacterial activity against Clostridium difficile by M11-A7 CLSI agar dilution", "type": "functional"}, "Clostridioides difficile [6]": {"system": "Clostridioides difficile", "experiment": "Antibacterial activity against Clostridium difficile by M11-A6 CLSI agar dilution", "type": "functional"}, "Clostridioides difficile [7]": {"system": "Clostridioides difficile", "experiment": "Antibacterial activity against Clostridium difficile by agar dilution method using Wilkins-Chalgren agar", "type": "functional"}, "Clostridioides difficile [8]": {"system": "Clostridioides difficile", "experiment": "Antibacterial activity against Clostridium difficile by M11-A5 CLSI agar dilution", "type": "functional"}, "[9]": {"experiment": "Cmax in syrian golden hamster serum at 200 mg administered BID after 1.5 hrs", "type": "ADME, organism-based, Mesocricetus auratus", "set-up": "dose 200 mg"}, "Clostridioides difficile [10]": {"system": "Clostridioides difficile", "experiment": "Antibacterial activity against Clostridium difficile by broth microdilution method using Wilkins-Chalgren broth", "type": "functional"}, "Clostridioides difficile [11]": {"system": "Clostridioides difficile", "experiment": "Antibacterial activity against toxin-positive Clostridium difficile clinical isolate by agar dilution method in presence of clavulanic acid", "type": "functional"}}}
{"smiles": "CCN1CCN(C(=O)N[C@@H](C(=O)N[C@@H]2C(=O)N3[C@@H]2SC(C)(C)[C@@H]3C(=O)O)c2ccccc2)C(=O)C1=O", "note": "[PIPERACILLIN]", "values": [{"measurement": "MIC50", "setting": "Clostridioides difficile [1]", "result": 8, "unit": "mg/L"}, {"measurement": "MIC90", "setting": "Clostridioides difficile [1]", "result": 8, "unit": "mg/L"}]}
{"smiles": "CCC[C@@H]1C[C@@H](C(=O)N[C@@H]([C@H]2O[C@H](SC)[C@H](O)[C@@H](O)[C@H]2O)[C@H](C)Cl)N(C)C1", "note": "[CLINDAMYCIN]", "values": [{"measurement": "Activity", "setting": "Clostridioides difficile [2]", "result": 17.3, "unit": "%"}, {"measurement": "MIC50", "setting": "Clostridioides difficile [3]", "result": 8, "unit": "mg/L"}, {"measurement": "MIC90", "setting": "Clostridioides difficile [3]", "result": "> 16", "unit": "mg/L"}]}
{"smiles": "CCc1c(Cl)c(O)c(Cl)c(O)c1C(=O)O[C@H]1[C@H](O)[C@H](OC)[C@H](OC/C2=C\\C=C\\C[C@H](O)/C(C)=C/[C@H](CC)[C@@H](O[C@@H]3OC(C)(C)[C@@H](OC(=O)C(C)C)[C@H](O)[C@@H]3O)/C(C)=C/C(C)=C/C[C@@H]([C@@H](C)O)OC2=O)O[C@@H]1C", "note": "[FIDAXOMICIN]", "values": [{"measurement": "half-life", "setting": "[4]", "result": 56.4, "unit": "min"}, {"measurement": "MIC50", "setting": "Clostridioides difficile [5]", "result": 0.25, "unit": "mg/L"}, {"measurement": "MIC90", "setting": "Clostridioides difficile [5]", "result": 0.5, "unit": "mg/L"}, {"measurement": "MIC50", "setting": "Clostridioides difficile [6]", "result": 0.125, "unit": "mg/L"}, {"measurement": "MIC90", "setting": "Clostridioides difficile [6]", "result": 0.125, "unit": "mg/L"}, {"measurement": "MIC50", "setting": "Clostridioides difficile [7]", "result": 0.25, "unit": "mg/L"}, {"measurement": "MIC90", "setting": "Clostridioides difficile [7]", "result": 0.25, "unit": "mg/L"}, {"measurement": "MIC", "setting": "Clostridioides difficile [8]", "result": "≤ 0.06", "unit": "mg/L"}, {"measurement": "MIC50", "setting": "Clostridioides difficile [8]", "result": "≤ 0.016", "unit": "mg/L"}, {"measurement": "MIC90", "setting": "Clostridioides difficile [8]", "result": 0.125, "unit": "mg/L"}, {"measurement": "Cmax", "setting": "[9]", "result": 0.0265, "unit": "µg/mL"}, {"measurement": "MIC50", "setting": "Clostridioides difficile [10]", "result": 0.0019, "unit": "mg/L"}, {"measurement": "MIC90", "setting": "Clostridioides difficile [10]", "result": 0.0078, "unit": "mg/L"}, {"measurement": "MIC50", "setting": "Clostridioides difficile [3]", "result": 0.25, "unit": "mg/L"}, {"measurement": "MIC90", "setting": "Clostridioides difficile [3]", "result": 0.5, "unit": "mg/L"}]}
{"smiles": "C[C@@H](O)[C@H]1C(=O)N2C(C(=O)O)=C(S[C@@H]3CN[C@H](C(=O)N(C)C)C3)[C@H](C)[C@H]12", "note": "[MEROPENEM]", "values": [{"measurement": "MIC50", "setting": "Clostridioides difficile [3]", "result": 2, "unit": "mg/L"}, {"measurement": "MIC90", "setting": "Clostridioides difficile [3]", "result": 2, "unit": "mg/L"}]}
{"smiles": "CO/N=C(\\C(=O)N[C@@H]1C(=O)N2C(C(=O)O)=C(CSc3nc(=O)c(O)nn3C)CS[C@H]12)c1csc(N)n1", "note": "[CEFTRIAXONE]", "values": [{"measurement": "Activity", "setting": "Clostridioides difficile [2]", "result": 1, "unit": "%"}, {"measurement": "MIC50", "setting": "Clostridioides difficile [3]", "result": 32, "unit": "mg/L"}, {"measurement": "MIC90", "setting": "Clostridioides difficile [3]", "result": 128, "unit": "mg/L"}]}
{"smiles": "CC1(C)S[C@@H]2[C@H](NC(=O)[C@H](N)c3ccc(O)cc3)C(=O)N2[C@H]1C(=O)O", "note": "[AMOXICILLIN]", "values": [{"measurement": "MIC50", "setting": "Clostridioides difficile [11]", "result": 1, "unit": "mg/L"}, {"measurement": "MIC90", "setting": "Clostridioides difficile [11]", "result": 1, "unit": "mg/L"}]}
{"smiles": "CO[C@H]1/C=C/O[C@@]2(C)Oc3c(C)c(O)c4c(O)c(c(/C=N/N5CCN(C)CC5)c(O)c4c3C2=O)NC(=O)/C(C)=C\\C=C\\[C@H](C)[C@H](O)[C@@H](C)[C@@H](O)[C@@H](C)[C@H](OC(C)=O)[C@@H]1C", "note": "[RIFAMPIN]", "values": [{"measurement": "MIC50", "setting": "Clostridioides difficile [3]", "result": 0.015, "unit": "mg/L"}, {"measurement": "MIC90", "setting": "Clostridioides difficile [3]", "result": 0.015, "unit": "mg/L"}]}
